Results from patent publication US20240228474A1, “ANTIBACTERIAL COMPOUND” (DISCUVA LIMITED, priority 2021, published 2024).
Values after ≈ are worked out from the molar mass of the structure shown.

Experiments:
[1] = test system: Escherichia coli (100 isolates); experiment: MIC90 by broth microdilution (EUCAST), 100 isolates; format: cell-based
Method: (§1) Minimum Inhibitory Concentration (MIC90) versus 100 isolates of Escherichia coli and Klebsiella pneumonia were determined. The Minimum Inhibitory Concentration at which 90% of the isolates (strains) are inhibited (MIC90) were measured by broth microdilution in line with EUCAST susceptibility testing standards (www.eucast.org). Bacterial inocula were prepared at ca 1×10^6 CFU/mL by diluting 100-fold a 0.5 McFarland suspension. Antibacterial panels containing 50 μl of antibacterial solutions at 2× the final concentrations were diluted 2-fold with 50 μl of inoculum to give a final inoculum of ca 5×10^5 CFU/ml and desired test concentrations of antibacterial agents (0.03-64 μg/mL). The plates were incubated according to the guidelines of the Clinical and Laboratory Standards Institute (Clinical and Laboratory Standards Institute. Methods for Dilution Antimicrobial Susceptibility Tests for Bacteria That Grow Aerobically; Approved Standard-Eleventh Edition, CLSI document […], 11 Jan. 2018). The MIC90 (μg/ml) is the MIC value at which greater than or equal to 90% of the isolates (strains) within a test population are inhibited.

[2] = test system: Klebsiella pneumonia (100 isolates); experiment: as above; format: cell-based
Method: as §1

[3] = test system: Proteus spp. (10 isolates); experiment: MIC by broth microdilution (EUCAST), 10 isolates; format: cell-based
Method: as §1, with “inhibited. Minimum Inhibitory Concentrations (MICs) versus Proteus spp. and Providencia spp. were determined for compound (I) and comparative compound (III) using the methodology outlined above for the 100 isolates of Escherichia coli and Klebsiella pneumonia.” for “inhibited.”

[4] = test system: Providencia spp. (10 isolates); experiment: MIC by broth microdilution (EUCAST), 10 isolates; format: cell-based
Method: as §1, with “inhibited. Minimum Inhibitory Concentrations (MICs) versus Proteus spp. and Providencia spp. were determined for compound (I) and comparative compound (III) using the methodology outlined above for the 100 isolates of Escherichia coli and Klebsiella pneumonia.” for “inhibited.”

[5] = Volume of distribution (Vss) from mouse plasma profiles; format: in vivo; settings: mice, 5 mg/kg IV bolus, 2 compartment model
Method: The volume of distribution (Vss) of compound (I) and comparative compounds (II) and (III) was determined from analysis of plasma concentration time profiles obtained from rodent species (mice), following 5 mg/kg IV bolus administration respectively. The volume of distribution was obtained by analysing the rodent plasma profiles for compound (I) and comparative compounds (II) and (III) using a 2 compartment IV bolus model in PK Solver (Excel). The volume of distribution data for compound (I) and comparative compound (II) was collected in separate experiments carried out on different days, and compared in Table 6.

[6] = test system: Klebsiella pneumoniae ATCC 43816; experiment: Murine respiratory infection proof-of-concept study, IV bolus; format: in vivo
Method: Compound (I) and comparative compound (III) were evaluated in proof-of-concept studies in murine models for the treatment of a respiratory infection with Gram-negative bacteria of the order Enterobacterales, a bacteraemia or bloodstream infection with Gram-negative bacteria of the order Enterobacterales, and a urinary tract infection with Gram-negative bacteria of the order Enterobacterales. Each dot, triangle or square indicator represents a single mouse. LOD refers to the limit of detection of the bacteria. […] Each of the proof-of-concept studies was carried out separately. By vehicle is meant pharmaceutically acceptable carrier or excipient. For the proof-of-concept study for the treatment of a respiratory infection caused or exacerbated by Gram-negative bacteria of the order Enterobacterales, CD-1 mice were infected with Klebsiella pneumoniae ATCC 43816. Two hours after infection (‘pre-treatment’ in FIG. 2), a vehicle (20% hydroxypropyl β cyclodextrin) containing no compound (I) or comparative compound (III), or a vehicle (20% hydroxypropyl β cyclodextrin) containing compound (I) or comparative compound (III), was administered by IV bolus at 20 mg/kg, TID (8 hrs apart), over one day.

[7] = test system: Klebsiella pneumoniae ATCC 43816; experiment: Further murine respiratory infection study, intravenous infusion; format: in vivo; settings: 26 h
Method: Compound (I) was evaluated in further proof-of-concept studies in murine models for the treatment of a respiratory infection with Gram-negative bacteria of the order Enterobacterales, and a urinary tract infection with Gram-negative bacteria of the order Enterobacterales. Each dot, triangle or square indicator represents a single mouse. LOD refers to the limit of detection of the bacteria. […] Each of the proof-of-concept studies was carried out separately. By vehicle is meant pharmaceutically acceptable excipient or carrier. For the further proof-of-concept study for the treatment of a respiratory infection caused or exacerbated by Gram-negative bacteria of the order Enterobacterales, male CD-1 mice were infected with Klebsiella pneumoniae ATCC 43816. Two hours after infection (‘pre-treatment’ in FIG. 5), mice were either treated with a vehicle control (phosphate buffer) containing no compound (I), or a vehicle (phosphate buffer) containing compound (I), administered by intravenous infusion for 1 hour (QD) with a dose of 20 mg/kg of compound (I). For the mice that received the vehicle control containing no compound (I), and some mice who received the vehicle containing compound (I), an additional 1-hour continuous intravenous infusion was administered 3 hours after the time at which the first administration begun (BID, 3 hrs apart).

[8] = 1 h IV infusion 20 mg/kg twice (BID, 3 hrs apart)

Cc1cnccc1-c1[nH]c(N)nc1-c1ccc2c(c1)N(C(=O)C(C)(C)N)CCO2 [Compound (I), 2-amino-1-(6-(2-amino-5-(3-methylpyridin-4-yl)-1H-imidazol-4-yl)-2,3-dihydro-4H-benzo[b][1,4]oxazin-4-yl)-2-methylpropan-1-one]
MIC90 [1]: 1 µg/mL (≈ 2.55 µM)
MIC Range [1]: 0.12 to 4.00 µg/mL
MIC Range [2]: 0.25 to 8.00 µg/mL
MIC90 ([2]; Klebsiella pneumoniae): 2 µg/mL (≈ 5.1 µM)
MIC Range [3]: 8 to 32 µg/mL
MIC Range [4]: 0.5 to 16 µg/mL
Vd [5]: 19.7 L/kg
reduction of bacterial burden in the lung compared to vehicle ([6]; CD-1 mice, IV bolus 20 mg/kg TID over one day, 26 h from initial infection): 6.24 log
more efficacious than comparative compound (III), lung ([6]; difference in log reduction, 26 h): 2 log
reduction of bacterial burden in the lung compared to pre-treatment (stasis levels) ([7]; 1 h IV infusion 20 mg/kg once (QD)): 0.95 log
reduction of bacterial burden in the lung compared to pre-treatment (stasis levels) [7, 8]: 1.80 log
reduction of bacterial burden in the lung compared to vehicle [7, 8]: 5.20 log
reduction of bacterial burden in the lung compared to vehicle ([7]; male CD-1 mice, 1 h IV infusion 20 mg/kg once (QD)): 4.35 log
